This passage reports T/C results from PubChem BioAssay AID192 (DTP/NCI, 2004).

Where “and” joins values, the source holds several entries; their conditions need not be identical. Equal values may be shown once. Toxic doses and inconclusive results are not listed.

The subject of the assay is BDF1 mice, B16 melanoma ip, median survival T/C. Kind of assay: NCI In Vivo Anticancer Drug Screen. Data for tumor model B16 Melanoma (intraperitoneal) in B6D2F1 (BDF1) mice. Particulars: endpoint: median survival time, higher = longer survival. In outline:
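Mice with transplantable tumors; drug vs vehicle groups; endpoint survival or tumor size; value = T/C.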

Where [1] appears, read: dose: 25.0 mg/kg/injection, schedule: Q01DX009 (ip), vehicle: saline with Tween-80.
The mark [2] stands for this setting: dose: 50.0 mg/kg/injection, schedule: Q01DX009 (ip), vehicle: saline with Tween-80.
Setting [3] is: dose: 100.0 mg/kg/injection, schedule: Q01DX009 (ip), vehicle: saline with Tween-80.
Setting [4] is: dose: 100.0 mg/kg/injection, schedule: Q01DX009 (ip), vehicle: saline.
Where [5] appears, read: dose: 100.0 mg/kg/injection, schedule: Q04DX003 (ip), vehicle: Klucel (hydroxypropylcellulose) (HPC).
[6] abbreviates: dose: 200.0 mg/kg/injection, schedule: Q04DX003 (ip), vehicle: Klucel (hydroxypropylcellulose) (HPC).
The mark [7] stands for this setting: dose: 400.0 mg/kg/injection, schedule: Q04DX003 (ip), vehicle: Klucel (hydroxypropylcellulose) (HPC).
[8] abbreviates: dose: 12.5 mg/kg/injection, schedule: Q01DX009 (ip), vehicle: saline with Tween-80.
Where [9] appears, read: dose: 50.0 mg/kg/injection, schedule: Q01DX009 (ip), vehicle: Klucel (hydroxypropylcellulose) (HPC).
The mark [10] stands for this setting: dose: 100.0 mg/kg/injection, schedule: Q01DX009 (ip), vehicle: Klucel (hydroxypropylcellulose) (HPC).
Where [11] appears, read: dose: 25.0 mg/kg/injection, schedule: Q01DX009 (ip), vehicle: Klucel (hydroxypropylcellulose) (HPC).
[12] abbreviates: dose: 100.0 mg/kg/injection, schedule: Q04DX003 (ip), vehicle: saline with Tween-80.
Setting [13] is: dose: 200.0 mg/kg/injection, schedule: Q04DX003 (ip), vehicle: saline with Tween-80.
Setting [14] is: dose: 400.0 mg/kg/injection, schedule: Q04DX003 (ip), vehicle: saline with Tween-80.
[15] abbreviates: dose: 200.0 mg/kg/injection, schedule: Q01DX009 (ip), vehicle: Klucel (hydroxypropylcellulose) (HPC).
[16] abbreviates: dose: 400.0 mg/kg/injection, schedule: Q01DX009 (ip), vehicle: Klucel (hydroxypropylcellulose) (HPC).
Setting [17] is: dose: 12.5 mg/kg/injection, schedule: Q01DX009 (ip), vehicle: saline.
Setting [18] is: dose: 25.0 mg/kg/injection, schedule: Q01DX009 (ip), vehicle: saline.
The mark [19] stands for this setting: dose: 50.0 mg/kg/injection, schedule: Q01DX009 (ip), vehicle: saline.
Where [20] appears, read: dose: 200.0 mg/kg/injection, schedule: Q01DX009 (ip), vehicle: saline.
Where [21] appears, read: dose: 400.0 mg/kg/injection, schedule: Q01DX009 (ip), vehicle: saline.

On to `O=C(CC(O)(C(F)(F)Cl)C(F)(F)Cl)c1ccco1`, for which the T/C was 100 % of control under setting [1], 100 % of control under setting [2] and 105 % of control under setting [3].
Consider `CCC(C)OC(N)=O` (stereo not given), for which the T/C under setting [4] was 123 % of control.
Turning to `CC12COC(=O)CC1CCC1C2CCC2(C)C1CCC2(C)O` (stereo not given), the T/C under setting [2] is 94 % of control; the T/C under setting [3] is 94 % of control; the T/C (dose: 200.0 mg/kg/injection, schedule: Q01DX009 (ip), vehicle: saline with Tween-80) is 88 % of control.
For the compound `NCCc1c[nH]c2ccccc12`, the T/C is, setting by setting: (dose: 100.0 mg/kg/injection, schedule: Q04DX003 (ip), vehicle: saline) 120 % of control; (dose: 200.0 mg/kg/injection, schedule: Q04DX003 (ip), vehicle: saline) 112 % of control.
As to `O=P(OCC(Br)CBr)(OCC(Br)CBr)OCC(Br)CBr` (stereo not given), the T/C runs as follows: under setting [5], 100 % of control; under setting [6], 102 % of control; under setting [7], 101 % of control.
As to `CC1=CC2=C(C=O)C(=O)[C@](C)(O)[C@@H](O)C2=CO1`, the T/C (dose: 6.25 mg/kg/injection, schedule: Q01DX009 (ip), vehicle: saline with Tween-80) is 119 % of control; the T/C under setting [8] is 108 % of control; the T/C under setting [1] was 122 % of control.
Turning to `CCC1CCCCC1(O)CC` (stereo not given), the T/C was 98 % of control under setting [9] and 99 % of control under setting [10].
Consider `O=c1oc(-c2ccc(Cl)cc2)nc2cc(Cl)ccc12`, for which the T/C was 99 % of control (dose: 6.25 mg/kg/injection, schedule: Q01DX009 (ip), vehicle: Klucel (hydroxypropylcellulose) (HPC)); 93 % of control (dose: 12.5 mg/kg/injection, schedule: Q01DX009 (ip), vehicle: Klucel (hydroxypropylcellulose) (HPC)); 105 % of control and 106 % of control under setting [11].
With `O=C1CCCNc2ccccc21`, the T/C (dose: 25.0 mg/kg/injection, schedule: Q04DX003 (ip), vehicle: saline with Tween-80) was 100 % of control; the T/C (dose: 50.0 mg/kg/injection, schedule: Q04DX003 (ip), vehicle: saline with Tween-80) was 102 % of control; the T/C (dose: 75.0 mg/kg/injection, schedule: Q04DX003 (ip), vehicle: saline with Tween-80) is 114 % of control; the T/C under setting [12] was 101 % of control; the T/C under setting [13] was 103 % of control; the T/C under setting [14] is 90 % of control.
As for `CCCCOC(OCCCC)C(C)=O`, the T/C was 96 % of control under setting [10], 93 % of control under setting [15] and 93 % of control under setting [16].
On to `CCCOP(OCCC)OCCC`, for which the T/C was 109 % of control (dose: 6.25 mg/kg/injection, schedule: Q01DX009 (ip), vehicle: saline); 118 % of control under setting [17]; 100 % of control under setting [18]; 92 % of control under setting [19].
Take `CN(C)C(C#N)C(=O)c1ccccc1` (stereo not given): the T/C is 104 % of control under setting [11], 97 % of control under setting [9] and 97 % of control under setting [10].
Take `CCCCNC(=O)Oc1ccc(C(=O)OCC)cc1`: the T/C is 96 % of control under setting [1], 98 % of control under setting [2] and 95 % of control under setting [3].
On to `CCCCC(C=O)(C=C=C(C)C)CC` (stereo not given), for which the T/C runs as follows: under setting [12], 88 % of control; under setting [13], 95 % of control.
As for `CCC1(C(C)Br)OC2=C(CC(C#N)(C#N)C(C#N)(C#N)C2)O1` (stereo not given), the T/C (dose: 75.0 mg/kg/injection, schedule: Q04DX003 (ip), vehicle: Klucel (hydroxypropylcellulose) (HPC)) was 87 % of control.
With `CCCCCCC(=O)CCCC(C)CCCC(C)C` (stereo not given), the T/C was 91 % of control under setting [10]; 105 % of control under setting [5]; 88 % of control under setting [15]; 94 % of control under setting [6]; 88 % of control under setting [7].
For the compound `CCCC(=O)O`, the T/C by setting is: under setting [17], 106 % of control; under setting [18], 101 % of control; under setting [19], 92 % of control; under setting [4], 106 % of control.
With `CC(=O)CC(=O)Nc1ccc(C(=O)O)c(O)c1`, the T/C under setting [10] was 86 % of control and the T/C under setting [15] is 89 % of control.
Turning to `CCN(CC)C(=O)C1CN2CCc3cc(OC)c(OC)cc3C2CC1O` (stereo not given), the T/C is, setting by setting: under setting [18], 90 % of control; under setting [19], 100 % of control; under setting [4], 100 % of control; under setting [20], 102 % of control; under setting [21], 100 % of control.
With `O=C(Nc1ccc(Cl)cc1)Nc1ccccc1Cl`, the T/C runs as follows: (dose: 4.5 mg/kg/injection, schedule: Q01DX009 (ip), vehicle: gum acacia) 102 % of control; (dose: 9.0 mg/kg/injection, schedule: Q01DX009 (ip), vehicle: gum acacia) 97 % of control; (dose: 18.0 mg/kg/injection, schedule: Q01DX009 (ip), vehicle: gum acacia) 90 % of control; (dose: 100.0 mg/kg/injection, schedule: Q01DX009 (ip), vehicle: gum acacia) 89 % of control.
As to `[N-]=[N+]=CC(=O)NCC(=O)NN`, the T/C was 111 % of control (dose: 50.0 mg/kg/injection, schedule: Q01DX009 (ip), vehicle: other); 110 % of control under setting [19]; 106 % of control (dose: 100.0 mg/kg/injection, schedule: Q01DX009 (ip), vehicle: other); 113 % of control under setting [4]; 120 % of control (dose: 200.0 mg/kg/injection, schedule: Q01DX009 (ip), vehicle: other); 123 % of control under setting [20]. Moreover, the T/C is 166 % of control (dose: 300.0 mg/kg/injection, schedule: Q01DX009 (ip), vehicle: other); 150 % of control under setting [21]; 86 % of control (dose: 500.0 mg/kg/injection, schedule: Q01DX009 (ip), vehicle: other); 156 % of control (dose: 600.0 mg/kg/injection, schedule: Q02DX005 (ip), vehicle: other).
`Nc1ncnc2sc3c(c12)CCCC3`: the T/C is 100 % of control under setting [10], 101 % of control under setting [15] and 110 % of control under setting [16].
In the same order, the values of `CC(C)CCOC(=O)C(O)c1ccccc1` (stereo not given) are 87 % of control, 93 % of control and 87 % of control.
As to `O=[N+]([O-])c1ccc(Sc2ccncn2)c([N+](=O)[O-])c1`, the T/C is, setting by setting: under setting [8], 100 % of control and 109 % of control; under setting [1], 94 % of control and 101 % of control; under setting [2], 95 % of control and 106 % of control; under setting [3], 108 % of control.
For the compound `CCOC(=O)c1ccc(NC(=O)NC)cc1`, the T/C runs as follows: under setting [12], 93 % of control; under setting [13], 86 % of control; under setting [14], 86 % of control.
Consider `C=C(C)C12OC3(CCCCCCCCC)OC1C1C4OC4(COC(=O)CCCCCCCCCCCCCCC)C(O)C4(O)C(=O)C(C)=CC4C1(O3)C(C)C2OC(=O)c1ccccc1` (stereo not given), for which the T/C is 102 % of control (dose: 0.5 micrograms/kg/injection, schedule: Q01DX009 (ip), vehicle: saline); 105 % of control (dose: 1.0 micrograms/kg/injection, schedule: Q01DX009 (ip), vehicle: saline); 91 % of control (dose: 1.9 micrograms/kg/injection, schedule: Q01DX009 (ip), vehicle: saline); 110 % of control (dose: 3.8 micrograms/kg/injection, schedule: Q01DX009 (ip), vehicle: saline); 91 % of control (dose: 7.5 micrograms/kg/injection, schedule: Q01DX009 (ip), vehicle: saline); 100 % of control (dose: 15.0 micrograms/kg/injection, schedule: Q01DX009 (ip), vehicle: saline). The T/C (dose: 30.0 micrograms/kg/injection, schedule: Q01DX009 (ip), vehicle: saline) was 100 % of control.
In the case of `CC1(C)OC(CI)C(COS(C)(=O)=O)O1` (stereo not given), the T/C under setting [8] is 97 % of control; the T/C under setting [1] was 97 % of control; the T/C under setting [2] is 96 % of control and 100 % of control.
